Measurements: ChEMBL document CHEMBL3612057, “Discovery of indolizines containing triazine moiety as new leads for the development of antitumoral agents targeting mitotic events” (2015)
Active and inactive are the calls of the source. The rule behind the calls is not given here.

How the values were obtained:
[1] = organism: Ovis aries; test: Inhibition of sheep tubulin polymerization at 100 uM by fluorescence assay
[2] = test system: ACHN; test: Cytotoxicity against human ACHN cells assessed as growth inhibition at 10 uM after 24 hrs by SRB assay; assay type: functional; conditions: read-out: GI
[3] = test system: T47D; test: Cytotoxicity against human T47D cells assessed as growth inhibition at 10 uM after 24 hrs by SRB assay; assay type: functional
[4] = test system: NCI-H460; test: Cytotoxicity against human NCI-H460 cells assessed as growth inhibition at 10 uM after 24 hrs by SRB assay; assay type: functional
[5] = test system: MCF7; test: Cytotoxicity against human MCF7 cells assessed as growth inhibition at 10 uM after 24 hrs by SRB assay; assay type: functional
[6] = test system: PC-3; test: Cytotoxicity against human PC3 cells assessed as growth inhibition at 10 uM after 24 hrs by SRB assay; assay type: functional
[7] = test system: SR; test: Cytotoxicity against human SR cells assessed as growth inhibition at 10 uM after 24 hrs by SRB assay; assay type: functional
[8] = test system: RXF 393; test: Cytotoxicity against human RXF393 cells assessed as growth inhibition at 10 uM after 24 hrs by SRB assay; assay type: functional; conditions: RXF 393, 24 h, read-out: GI
[9] = test system: Malme-3M; test: Cytotoxicity against human MALME-3M cells assessed as growth inhibition at 10 uM after 24 hrs by SRB assay; assay type: functional; conditions: read-out: GI
[10] = test system: CAKI-1; test: Cytotoxicity against human CAKI-1 cells assessed as growth inhibition at 10 uM after 24 hrs by SRB assay; assay type: functional
[11] = test system: OVCAR-4; test: Cytotoxicity against human OVCAR4 cells assessed as growth inhibition at 10 uM after 24 hrs by SRB assay; assay type: functional
[12] = test system: SF-539; test: Cytotoxicity against human SF539 cells assessed as growth inhibition at 10 uM after 24 hrs by SRB assay; assay type: functional; conditions: SF-539, 24 h, read-out: GI
[13] = test system: SF-295; test: Cytotoxicity against human SF295 cells assessed as growth inhibition at 10 uM after 24 hrs by SRB assay; assay type: functional; conditions: SF-295, 24 h, read-out: GI
[14] = test system: U-251; test: Cytotoxicity against human U251 cells assessed as growth inhibition at 10 uM after 24 hrs by SRB assay; assay type: functional; conditions: U-251, 24 h, read-out: GI
[15] = test system: MDA-MB-231; test: Cytotoxicity against human MDA-MB-231 cells assessed as growth inhibition at 10 uM after 24 hrs by SRB assay; assay type: functional; conditions: MDA-MB-231, 24 h, read-out: GI
[16] = test system: HOP-92; test: Cytotoxicity against human HOP92 cells assessed as growth inhibition at 10 uM after 24 hrs by SRB assay; assay type: functional; conditions: HOP-92, 24 h, read-out: GI
[17] = Cytotoxicity against human Hs578T cells assessed as growth inhibition at 10 uM after 24 hrs by SRB assay; assay type: functional; conditions: Hs-578T, read-out: GI
[18] = test system: NCI-H522; test: Cytotoxicity against human NCI-H522 cells assessed as growth inhibition at 10 uM after 24 hrs by SRB assay; assay type: functional; conditions: NCI-H522, 24 h, read-out: GI
[19] = test system: HOP-62; test: Cytotoxicity against human HOP62 cells assessed as growth inhibition at 10 uM after 24 hrs by SRB assay; assay type: functional; conditions: HOP-62, 24 h, read-out: GI
[20] = test system: TK-10; test: Cytotoxicity against human TK10 cells assessed as growth inhibition at 10 uM after 24 hrs by SRB assay; assay type: functional
[21] = test system: SNB-75; test: Cytotoxicity against human SNB75 cells assessed as growth inhibition at 10 uM after 24 hrs by SRB assay; assay type: functional; conditions: SNB-75, 24 h, read-out: GI
[22] = test system: HCT-116; test: Cytotoxicity against human HCT116 cells assessed as growth inhibition at 10 uM after 24 hrs by SRB assay; assay type: functional
[23] = test system: OVCAR-8; test: Cytotoxicity against human OVCAR8 cells assessed as growth inhibition at 10 uM after 24 hrs by SRB assay; assay type: functional; conditions: OVCAR-8, 24 h, read-out: GI
[24] = test system: SK-MEL-5; test: Cytotoxicity against human SK-MEL-5 cells assessed as growth inhibition at 10 uM after 24 hrs by SRB assay; assay type: functional
[25] = test system: UACC-257; test: Cytotoxicity against human UACC257 cells assessed as growth inhibition at 10 uM after 24 hrs by SRB assay; assay type: functional; conditions: UACC-257, 24 h, read-out: GI
[26] = test system: OVCAR-3; test: Cytotoxicity against human OVCAR3 cells assessed as growth inhibition at 10 uM after 24 hrs by SRB assay; assay type: functional
[27] = test system: MDA-MB-435; test: Cytotoxicity against human MDA-MB-435 cells assessed as growth inhibition at 10 uM after 24 hrs by SRB assay; assay type: functional
[28] = test system: CCRF-CEM; test: Cytotoxicity against human CCRF-CEM cells assessed as growth inhibition at 10 uM after 24 hrs by SRB assay; assay type: functional
[29] = test system: SK-MEL-28; test: Cytotoxicity against human SK-MEL-28 cells assessed as growth inhibition at 10 uM after 24 hrs by SRB assay; assay type: functional
[30] = test system: RPMI-8226; test: Cytotoxicity against human RPMI8226 cells assessed as growth inhibition at 10 uM after 24 hrs by SRB assay; assay type: functional
[31] = test system: A549; test: Cytotoxicity against human A549 cells assessed as growth inhibition at 10 uM after 24 hrs by SRB assay; assay type: functional; conditions: A549, 24 h, read-out: GI
[32] = test system: 786-0; test: Cytotoxicity against human 786-0 cells assessed as growth inhibition at 10 uM after 24 hrs by SRB assay; assay type: functional; conditions: 786-0, 24 h, read-out: GI
[33] = test system: SK-OV-3; test: Cytotoxicity against human SKOV3 cells assessed as growth inhibition at 10 uM after 24 hrs by SRB assay; assay type: functional; conditions: SK-OV-3, 24 h, read-out: GI
[34] = test system: K562; test: Cytotoxicity against human K562 cells assessed as growth inhibition at 10 uM after 24 hrs by SRB assay; assay type: functional
[35] = test system: HL-60(TB); test: Cytotoxicity against human HL-60(TB) cells assessed as growth inhibition at 10 uM after 24 hrs by SRB assay; assay type: functional
[36] = test system: UACC-62; test: Cytotoxicity against human UACC62 cells assessed as growth inhibition at 10 uM after 24 hrs by SRB assay; assay type: functional; conditions: UACC-62, 24 h, read-out: GI
[37] = test system: NCI-H226; test: Cytotoxicity against human NCI-H226 cells assessed as growth inhibition at 10 uM after 24 hrs by SRB assay; assay type: functional

Cn1c(-c2cc(C(=O)c3ccc(Br)cc3)n3ccccc23)nc(=O)[nH]c1=O
inhibition [1]: inactive

COc1nc(OC)nc(-c2cc(C(=O)c3ccc(C)cc3)n3ccc(C#N)cc23)n1
inhibition of growth at 10 µM [2]: 15% | growth inhibition (GI) [3]: inactive | growth inhibition (GI) [4]: inactive | growth inhibition (GI) [5]: inactive | growth inhibition (GI) [6]: inactive | growth inhibition (GI) [7]: inactive | inhibition [1]: inactive | inhibition of growth at 10 µM [8]: 52% | inhibition of growth at 10 µM [9]: 17% | growth inhibition (GI) [10]: inactive | growth inhibition (GI) [11]: inactive | inhibition of growth at 10 µM [12]: 42% | inhibition of growth at 10 µM [13]: 47% | inhibition of growth at 10 µM [14]: 56% | inhibition of growth at 10 µM [15]: 39% | inhibition of growth at 10 µM [16]: 11% | inhibition of growth at 10 µM [17]: 42% | inhibition of growth at 10 µM [18]: 21% | inhibition of growth at 10 µM [19]: 60% | growth inhibition (GI) [20]: inactive | inhibition of growth at 10 µM [21]: -14% | growth inhibition (GI) [22]: inactive | inhibition of growth at 10 µM [23]: 14% | growth inhibition (GI) [24]: inactive | inhibition of growth at 10 µM [25]: 16% | growth inhibition (GI) [26]: inactive | growth inhibition (GI) [27]: inactive | growth inhibition (GI) [28]: inactive | growth inhibition (GI) [29]: inactive | growth inhibition (GI) [30]: inactive | inhibition of growth at 10 µM [31]: 11% | inhibition of growth at 10 µM [32]: 40% | inhibition of growth at 10 µM [33]: 42% | growth inhibition (GI) [34]: inactive | growth inhibition (GI) [35]: inactive | inhibition of growth at 10 µM [36]: 14% | growth inhibition (GI) [37]: inactive

O=C(c1ccc(Br)cc1)c1cc(-c2nc(=O)[nH]c(=O)[nH]2)c2ccccn12
inhibition [1]: inactive

COc1nc(OC)nc(-c2cc(C(=O)c3ccc(Br)cc3)n3cc(C)cc(C)c23)n1
inhibition [1]: inactive

COc1nc(OC)nc(-c2cc(C(=O)c3ccc(F)cc3)n3ccccc23)n1
inhibition [1]: inactive
